Test results from paper PMC7504721, “Targeting the Initiator Protease of the Classical Pathway of Complement Using Fragment-Based Drug Discovery” (Molecules, 2020).
pIC50: −log10 of the molar value. Where two headings read alike, the source gives them in different places.

System: classical pathway
Assay: Classical pathway-specific ELISA-based complement inhibition assay (C4b deposition, IgM-coated plate, human serum)
Type: biochemical
Details: for pIC50: non-linear regression; for inhibition of classical pathway (C4b deposition) relative to non-binding control compound: single 500 µM concentration, triplicate, 1% normal human serum, unpaired t-test p < 0.05
Procedure: To carry out classical pathway ELISA-based inhibition assays, IgM was dissolved in coating buffer (100 mM Na2CO3/NaHCO3, pH 9.6) to a final concentration of 3 µg/mL and was dispensed into 96-well plates at 100 µL per well. Mannan was dissolved to 2 µg/mL and lipopolysaccharides (LPS) were dissolved to 10 µg/mL in coating buffer for use in lectin and alternative pathway inhibition assays, respectively. Immobilization was allowed to proceed overnight at 25 °C. The immobilization reagent was then removed, followed by three washes in washing buffer (50 mM Tris pH 8.0, 200 mM NaCl, 0.05% (v/v) Tween-20), and blocked using 100 µL of 1% (w/v) bovine serum albumin in PBS-T for 1 h at 37°C. Blocking buffer was removed and plates were washed three times in washing buffer. Next, 500 µM of each compound, 5% (v/v) DMSO, and 1% (v/v) normal human serum (Innovative Research) (final concentrations) were dissolved in classical/lectin pathway ELISA buffer (20 mM HEPES (pH 7.3), 0.1% (w/v) gelatin, 140 mM NaCl, 2 mM CaCl2, 0.5 mM MgCl2) and added to the IgM-coated plate for 1 h at 37 °C. For the lectin pathway-specific ELISAs shown in Figure 5D, we used C1q-depleted serum from CompTech at 2% (v/v) and thus the classical pathway assays for this analysis were also performed using serum from CompTech at 2% (v/v). For the alternative pathway, 20% (v/v) normal human serum (CompTech) (final concentration) and alternative pathway ELISA buffer (20 mM HEPES, (pH 7.5), 0.1% (w/v) gelatin, 140 mM NaCl, 2 mM CaCl2, 0.5 mM MgCl2) were used in place of classical/lectin pathway ELISA buffer. Plates were then washed three times in wash buffer and each well was filled with 100 µL of α-C4 (HYB 162-02, Santa Cruz Biotechnology) diluted 1:300 for classical and lectin pathway assays and 100 µL of C3b (WM-1, Sigma) diluted 1:300 for alternative pathway assays. Plates were again incubated at 37 °C for 1 h, washed three times, filled with 100 µL of HRP-conjugated goat-α-mouse secondary antibody (diluted 1:3000) (Thermo Scientific, Waltham, MA, USA), and rocked gently for 1 h at 25 °C. After three more washes, 50 µl of substrate (1-step Ultra TMB, Thermo Scientific, Waltham, MA, USA) was added to each well and rocked for 15 min in the dark at 25 °C. The reaction was stopped with 50 µL of 0.16 M sulfuric acid, and the plate was read at 450 nm using an EnSight multimode plate reader (Perkin-Elmer). Each column contained a positive control for full complement activity (5% (v/v) blank DMSO with 1% (v/v) serum) and a negative control for no complement activity (5% (v/v) blank DMSO and no serum). Positive controls (1% (v/v) serum, no inhibitor) were defined as 100% C4b or C3b signal whereas negative controls (no serum) were defined as 0% C4b or C3b signal for each column. Compounds that inhibited complement deposition relative to the control were then evaluated using the same assay setup across a two-fold variable concentration series for each compound (7.8–500 µM). […] All experiments were performed no less than three times.
Statistical analyses were performed using GraphPad Prism version 8. For complement inhibition assays, measures of statistical significance for single-dose experiments were assessed using unpaired Student’s t-tests compared to no inhibitor controls (pathway ELISAs) or non-binding control compounds (classical pathway ELISA). Statistical significance was defined as p < 0.05. Calculation of IC50 values from dose-dependent complement assays were obtained by non-linear regression analysis using a using an inhibitor vs. response model and with 95% confidence intervals reported. For non-linear regression analyses, the top and bottom of each curve were constrained to 100 and 0, respectively.

[1] = dose-response 7.8–500 µM, top and bottom constrained to 100 and 0, read-out: IC50, classical pathway-specific ELISA
[2] = n = 9 (CMP-1611), n = 7 (CMP-1696), read-out: 95% confidence interval of IC50, classical pathway-specific ELISA

| pIC50 [1] | pIC50 [2] | Compound | inhibition of classical pathway (C4b deposition) relative to non-binding control compound |
| --- | --- | --- | --- |
| 3.18 | 3.10 to 3.25 | CN(C)c1cc(N2CCCC(N)C2)ncn1 (stereo not drawn) [CMP-1611] | statistically significant inhibitory activity |
| 3.28 | 3.17 to 3.39 | COCc1nc(-c2ccc(OC3CNC3)cc2)no1 [CMP-1696] | statistically significant inhibitory activity |
